Laboratory results from patent US8354416B2 (Glaxo Group Limited, priority 2005, dated 2013).

Test system: influx of neutrophils to the lung in LPS-challenged rats
Assay: Rat LPS neutrophilia model
Assay type: in vivo
Conditions: intratracheal, LPS aerosol 100 ug/ml, in at least one of the range of conditions tested, significance p<0.05
Protocol: Rat LPS Neutrophilia Model
The effect of compounds on the influx of neutrophils to the lung in LPS-challenged rats is evaluated as follows. The test compound is suspended in one of the following solutions: 0.5% tween 80/PBS, 0.5% tween 80/saline, 10% EtOH/saline (with pH adjusted to 2.0, or 8.0 with HCl, or unadjusted), Saline (pH 2.0, 6.5 or 8.0, 0.5% Tragacanth, 1% DMSO/20% Encapsin/Saline, or acidified 5% Tragacanth. The suspension process may be aided by the use of a glass homogenizer. For intratracheal administration, the animals are anesthetized with inhaled isoflurane and placed in a supine position, the trachea is intubated with a steel gavage needle (1.5 inch, 22 gauge, small ball) or a Penn-Century Microsprayer Aerosolizer (model IA-1B) and 200 ul of dosing solution is delivered. The animals are visually monitored during the recovery process, which typically occurs within two minutes. It is noted that the test compounds may be alternatively administered via the microsprayer in a dry powder blend with a suitable excipient, such as lactose.
Rats treated with compound or vehicle (15 min-24 hours pretreatment) are exposed to an LPS aerosol (100 ug/ml) for 15 min. Four hours later the rats are euthanized with pentobarbital (100 mg/kg, i.p.) and the airways are lavaged with 5 washes of 5 ml of phosphate buffered saline. The harvested cells are stained (Diffquick) and counted to determine total and differential cell data. […] Inhibition of neutrophil levels relative to no compound controls is calculated based on the differential counts.
The data is obtained as % inhibition using a particular concentration and pretreat time.

Q: Cc1ccc(C(=O)NC2CCCC2)cc1-c1nc(N2CCC(N)CC2)nc2c1ccc(=O)n2-c1c(F)cccc1F [Example 70, 3-[2-(4-amino-1-piperidinyl)-8-(2,6-difluorophenyl)-7-oxo-7,8-dihydropyrido[2,3-d]pyrimidin-4-yl]-N-cyclopentyl-4-methylbenzamide] was tested. Which “inhibition of neutrophilia (neutrophil levels in airway lavage relative to no compound controls)” value did it give?
A: statistically nonsignificant inhibition of neutrophilia

Q: With CCCNC(=O)c1cc(F)c(C)c(-c2nc(NCCCN(CC)CC)nc3c2ccc(=O)n3-c2c(F)cccc2F)c1 [Example 181, 3-[2-{[3-(diethylamino)propyl]amino}-8-(2,6-difluorophenyl)-7-oxo-7,8-dihydropyrido[2,3-d]pyrimidin-4-yl]-5-fluoro-4-methyl-N-propylbenzamide] as the compound, how does the “inhibition of neutrophilia (neutrophil levels in airway lavage relative to no compound controls)” value read?
A: statistically nonsignificant inhibition of neutrophilia

Q: With Cc1ccc(C(=O)Nc2ccc(F)cc2)cc1-c1nc(N2CCC(N)CC2)nc2c1ccc(=O)n2-c1c(F)cccc1F [Example 72, 3-[2-(4-amino-1-piperidinyl)-8-(2,6-difluorophenyl)-7-oxo-7,8-dihydropyrido[2,3-d]pyrimidin-4-yl]-N-(4-fluorophenyl)-4-methylbenzamide] as the compound, how does the “inhibition of neutrophilia (neutrophil levels in airway lavage relative to no compound controls)” value read?
A: statistically significant inhibition of neutrophilia

Q: How did the “inhibition of neutrophilia (neutrophil levels in airway lavage relative to no compound controls)” value turn out when CNCCNc1nc(-c2cc(C(=O)Nc3ccc(F)cc3)ccc2C)c2ccc(=O)n(-c3c(F)cccc3F)c2n1 [Example 60, 3-(8-(2,6-difluorophenyl)-2-{[2-(methylamino)ethyl]amino}-7-oxo-7,8-dihydropyrido[2,3-d]pyrimidin-4-yl)-N-(4-fluorophenyl)-4-methylbenzamide] was run?
A: statistically significant inhibition of neutrophilia

Q: Cc1ccc(C(=O)Nc2nccs2)cc1-c1nc(N(C)CCCN(C)C)nc2c1ccc(=O)n2-c1c(F)cccc1F [Example 107, 3-{8-(2,6-difluorophenyl)-2-[[3-(dimethylamino)propyl](methyl)amino]-7-oxo-7,8-dihydropyrido[2,3-d]pyrimidin-4-yl}-4-methyl-N-1,3-thiazol-2-ylbenzamide] was tested. Which “inhibition of neutrophilia (neutrophil levels in airway lavage relative to no compound controls)” value did it give?
A: statistically significant inhibition of neutrophilia

Q: With CCN(CC)CCCNc1nc(-c2cc(C(=O)Nc3ccccc3)ccc2C)c2ccc(=O)n(-c3c(F)cccc3F)c2n1 [Example 147, 3-[2-{[3-(diethylamino)propyl]amino}-8-(2,6-difluorophenyl)-7-oxo-7,8-dihydropyrido[2,3-d]pyrimidin-4-yl]-4-methyl-N-phenylbenzamide] as the compound, how does the “inhibition of neutrophilia (neutrophil levels in airway lavage relative to no compound controls)” value read?
A: statistically nonsignificant inhibition of neutrophilia

Q: How did the “inhibition of neutrophilia (neutrophil levels in airway lavage relative to no compound controls)” value turn out when Cc1ccc(C(=O)Nc2nccs2)cc1-c1nc(NCc2ncc[nH]2)nc2c1ccc(=O)n2-c1c(F)cccc1F [79(c), 3-{8-(2,6-difluorophenyl)-2-[(1H-imidazol-2-ylmethyl)amino]-7-oxo-7,8-dihydropyrido[2,3-d]pyrimidin-4-yl}-4-methyl-N-1,3-thiazol-2-ylbenzamide] was run?
A: statistically significant inhibition of neutrophilia

Q: Cc1ccc(C(=O)NCc2ccccc2)cc1-c1nc(N2CCC(N)CC2)nc2c1ccc(=O)n2-c1c(F)cccc1F [Example 71, 3-[2-(4-amino-1-piperidinyl)-8-(2,6-difluorophenyl)-7-oxo-7,8-dihydropyrido[2,3-d]pyrimidin-4-yl]-4-methyl-N-(phenylmethyl)benzamide] was tested. Which “inhibition of neutrophilia (neutrophil levels in airway lavage relative to no compound controls)” value did it give?
A: statistically nonsignificant inhibition of neutrophilia

Q: Which “inhibition of neutrophilia (neutrophil levels in airway lavage relative to no compound controls)” value does the source give for Cc1ccc(C(=O)NCc2ccccc2)cc1-c1nc(NCc2ncc[nH]2)nc2c1ccc(=O)n2-c1c(F)cccc1F [Example 77, 3-{8-(2,6-difluorophenyl)-2-[(1H-imidazol-2-ylmethyl)amino]-7-oxo-7,8-dihydropyrido[2,3-d]pyrimidin-4-yl}-4-methyl-N-(phenylmethyl)benzamide] here?
A: statistically significant inhibition of neutrophilia

Q: Cc1ccc(C(=O)NC2CC2)cc1-c1nc(N2CCC(N3CCC(C)CC3)CC2)nc2c1ccc(=O)n2-c1c(F)cccc1F [Example 178, N-cyclopropyl-3-[8-(2,6-difluorophenyl)-2-(4-methyl-1,4′-bipiperidin-1′-yl)-7-oxo-7,8-dihydropyrido[2,3-d]pyrimidin-4-yl]-4-methylbenzamide] was tested. Which “inhibition of neutrophilia (neutrophil levels in airway lavage relative to no compound controls)” value did it give?
A: statistically nonsignificant inhibition of neutrophilia

Q: How did the “inhibition of neutrophilia (neutrophil levels in airway lavage relative to no compound controls)” value turn out when CCN(CC)CCCNc1nc(-c2cc(C(=O)NC3CC3)cc(F)c2C)c2ccc(=O)n(-c3c(F)cccc3F)c2n1 [Example 185, N-cyclopropyl-3-[2-{[3-(diethylamino)propyl]amino}-8-(2,6-difluorophenyl)-7-oxo-7,8-dihydropyrido[2,3-d]pyrimidin-4-yl]-5-fluoro-4-methylbenzamide] was run?
A: statistically nonsignificant inhibition of neutrophilia

Q: Which “inhibition of neutrophilia (neutrophil levels in airway lavage relative to no compound controls)” value does the source give for Cc1ccc(C(=O)NCCc2ccccc2)cc1-c1nc(NC2CC(C)(C)NC(C)(C)C2)nc2c1ccc(=O)n2-c1c(F)cccc1F [Example 28, 3-{8-(2,6-difluorophenyl)-7-oxo-2-[(2,2,6,6-tetramethyl-4-piperidinyl)amino]-7,8-dihydropyrido[2,3-d]pyrimidin-4-yl}-4-methyl-N-(2-phenylethyl)benzamide] here?
A: statistically nonsignificant inhibition of neutrophilia

Q: How did the “inhibition of neutrophilia (neutrophil levels in airway lavage relative to no compound controls)” value turn out when CNC1CCN(c2nc(-c3cc(C(=O)NC(C)C)ccc3C)c3ccc(=O)n(-c4c(F)cccc4F)c3n2)CC1 [113(b), 3-{8-(2,6-difluorophenyl)-2-[4-(methylamino)-1-piperidinyl]-7-oxo-7,8-dihydropyrido[2,3-d]pyrimidin-4-yl}-4-methyl-N-(1-methylethyl)benzamide] was run?
A: statistically nonsignificant inhibition of neutrophilia

Q: Which “inhibition of neutrophilia (neutrophil levels in airway lavage relative to no compound controls)” value does the source give for Cc1ccc(C(=O)Nc2ccc(F)cc2)cc1-c1nc(NCCN(C)C(=O)OC(C)(C)C)nc2c1ccc(=O)n2-c1c(F)cccc1F [Example 95, 1,1-dimethylethyl (2-{[8-(2,6-difluorophenyl)-4-(5-{[(4-fluorophenyl)amino]carbonyl}-2-methylphenyl)-7-oxo-7,8-dihydropyrido[2,3-d]pyrimidin-2-yl]amino}ethyl)methylcarbamate] here?
A: statistically nonsignificant inhibition of neutrophilia

Q: Which “inhibition of neutrophilia (neutrophil levels in airway lavage relative to no compound controls)” value does the source give for CCCNCCNc1nc(-c2cc(C(=O)NC3CC3)ccc2C)c2ccc(=O)n(-c3c(F)cccc3F)c2n1 [Example 24, N-cyclopropyl-3-(8-(2,6-difluorophenyl)-7-oxo-2-{[2-(propylamino)ethyl]amino}-7,8-dihydropyrido[2,3-d]pyrimidin-4-yl)-4-methylbenzamide] here?
A: statistically nonsignificant inhibition of neutrophilia

Q: Which “inhibition of neutrophilia (neutrophil levels in airway lavage relative to no compound controls)” value does the source give for Cc1ccc(C(=O)NC(C)C)cc1-c1nc(N2CCC(N)CC2)nc2c1ccc(=O)n2-c1c(F)cccc1F [Example 68, 3-[2-(4-amino-1-piperidinyl)-8-(2,6-difluorophenyl)-7-oxo-7,8-dihydropyrido[2,3-d]pyrimidin-4-yl]-4-methyl-N-(1-methylethyl)benzamide] here?
A: statistically significant inhibition of neutrophilia

Q: For CCN(CC)CCCNc1nc(-c2cc(C(=O)NCC3CCCC3)ccc2C)c2ccc(=O)n(-c3c(F)cccc3F)c2n1 [Example 132, N-(cyclopentylmethyl)-3-[2-{[3-(diethylamino)propyl]amino}-8-(2,6-difluorophenyl)-7-oxo-7,8-dihydropyrido[2,3-d]pyrimidin-4-yl]-4-methylbenzamidetrifluoroacetate], which “inhibition of neutrophilia (neutrophil levels in airway lavage relative to no compound controls)” value is on record?
A: statistically nonsignificant inhibition of neutrophilia

Q: Cc1ccc(C(=O)NCC(C)C)cc1-c1nc(N2CCC(N3CCC(C)CC3)CC2)nc2c1ccc(=O)n2-c1c(F)cccc1F [Example 168, 3-[8-(2,6-difluorophenyl)-2-(4-methyl-1,4′-bipiperidin-1′-yl)-7-oxo-7,8-dihydropyrido[2,3-d]pyrimidin-4-yl]-4-methyl-N-(2-methylpropyl)benzamide] was tested. Which “inhibition of neutrophilia (neutrophil levels in airway lavage relative to no compound controls)” value did it give?
A: inactive

Q: For Cc1ccc(NC(=O)c2ccsc2)cc1-c1nc(N2CCC(N)CC2)nc2c1ccc(=O)n2-c1c(F)cccc1F [Example 32, N-{3-[2-(4-amino-1-piperidinyl)-8-(2,6-difluorophenyl)-7-oxo-7,8-dihydropyrido[2,3-d]pyrimidin-4-yl]-4-methylphenyl}-3-thiophenecarboxamide], which “inhibition of neutrophilia (neutrophil levels in airway lavage relative to no compound controls)” value is on record?
A: statistically nonsignificant inhibition of neutrophilia
